This is an account of results in article PMC10104254, “Development of a novel angiotensin converting enzyme 2 stimulator with broad implications in SARS-CoV2 and type 1 diabetes” (Research Square, 2023).

For data set [1], the target named is T1, rhACE2 (Homo sapiens, UniProt Q9BYF1).
T1 construct: purchased R&D systems
The arrangement: method as in PMID 26931059. Particulars: 20 amino acid peptide from Bothrops asper myotoxin; cited from earlier work.

Data set [2] can be described thus: Stability of 2A in cell culture (HEK293), LCMS. Type of data set: in vitro ADME. Particulars: peptide 9 μM, 60 min; for remaining at 1 h, 9 μM: human, HEK293 cells in culture, HEK293 cells 20,000 cells/well, Opti-MEM reduced serum media, mean ± SEM, read-out: amount remaining in the medium of HEK293 cells at T60 min compared with T0 min. On the procedure:
HEK293 (passage 24) were seeded into tissue-culture-grade 96-well plates at a density of 20,000 cells/well. After 24 h, cells were washed with PBS and replaced with Opti-MEM reduced serum media containing amidated or non-amidated 2A (9 μM). Aliquots of equal volume were taken at T = 0 and 60 min. Amidated 2A was added to control wells having media (no cells) only. Samples were immediately acidified in 0.1% TFA, snap frozen in dry ice and stored in −80 °C until analyzed by LCMS.
Samples were analyzed by LC-MS/MS on a Shimadzu Nexera uHPLC (Japan) coupled to a Triple Tof 5600 mass spectrometer (ABSCIEX, Canada) equipped with a duo electrospray ion source. One μl of each extract was injected onto a 2.1 mm × 100 mm Zorbax C18 1.8um column (Agilent) at 200 μL/min. Linear gradients of 1–50% solvent B over 7 min at 200 μL/min flow rate, followed by a steeper gradient from 50% to 98% solvent B in 1 min were used for peptide elution. Solvent B was held at 98% for 3 min for washing the column and returned to 1% solvent B for equilibration prior to the next sample injection. Solvent A consisted of 0.1% formic acid (aq) and solvent B contained 90/10 acetonitrile/ 0.1% formic acid (aq). The ionspray voltage was set to 5500 V, declustering potential (DP) 100 V, curtain gas flow 25, nebuliser gas 1 (GS1) 50, GS2 to 60, interface heater at 150 °C and the turbo heater to 500 °C. The mass spectrometer acquired 500ms full scan high resolution, at 30,000 resolving power, TOF-MS data over the mass range […].
Both amidated and non amidated 2A were quantified using the [M+2H]^2+ doubly charged molecular ion from m/z 575.32 to 575.37.
The data was acquired using Analyst TF 1.6 and quantification was carried out using MultiQuant 2.1.1 software (ABSCIEX, Canada).

A short description of data set [3]: Streptozotocin (STZ) model of type 1 diabetes in mice. In kind it is in vivo, C57Bl/6J mice. On the procedure: Streptozotocin (STZ; 150 mg/kg; i.p) was used to induce type 1 diabetes in male C57BI/6J mice. Blood glucose was measured 1 week post STZ injection to confirm the presence of diabetes (BG levels > 15 mmol/L at 1 week post STZ injection was included in this study). After establishment of diabetes (T0), mice were randomly allocated to receive 2A (1 mg/kg/ day; 10% DMSO in saline) or vehicle (10% DMSO in saline) via subcutaneous minipumps for a period 3 months. Non fasting blood glucose levels were measured every 2 weeks until study end (T3), and body weight was measured daily, until study end. 24-h urine samples were collected at 1 month intervals since commencement of 2A or its vehicle. (Detailed Methods section is provided at the end of the Discussion).
Streptozotocin (STZ) is a widely used model of type I diabetes which closely mimic the human disease[31],[32]. Male C57Bl/6J mice were purchased from Animal Resources Centre (Western Australia, Australia) and these mice were acclimatized for at least one week prior to inducing diabetes. […] Mouse body weight was measured daily. Blood glucose levels were measured via tail bleed 1-week post-STZ injection to confirm the establishment of diabetes (CareSens N; iSENS, Seoul, Korea). […] Blood glucose levels were measured every 2 weeks until the end of the treatment period. […]

Data set [4] has as its target T1, rhACE2. Briefly: ACE2-dependent breakdown of angiotensin II and formation of angiotensin 1-7 by LCMS. Type of data set: biochemical. Particulars: 2A 1.7 μM, n=4. The method, then: The effect of 2A on ACE2-mediated cleavage of angiotensin II was assessed using LCMS. rhACE2 (0.1 ng/μL) was incubated with 2A (1.7 μM) for 1 h at 37 °C. Angiotensin II (0.02 μg/μL) was then added. Aliquots of equal volumes were collected at T = 0, 3, 6 and 24-h. Aliquots were immediately acidified with trifluoroacetic acid (0.1% final). Samples were snap frozen in dry ice and lyophilized for analysis by LCMS.
Prior to loading, samples were reconstituted in 100 μL loading buffer. Samples were analysed using a quadrupole TOF mass spectrometer (MicroTOFq, Bruker Daltonics, Bremen, Germany) coupled online with a 1200 series nano HPLC (Agilent Technologies). Samples were loaded onto a zorbax 300SB reversed-phase trap column equilibrated with 95% buffer A (0.1% formic acid). The flow rate was set to 10 μL/min. The components were eluted over a 10 min gradient to 70% buffer B (80% acetonitrile, 0.1% formic acid) and peptides were separated on zorbax 300SB-C18 nano column (75 μm × 15 cm, 3.5 μm). The eluant was nebulised and ionised using the Bruker nano-ESI source with a capillary voltage of 4500 V, dry gas at 180° C, flow rate set at […] and nebuliser gas pressure at 300 mbar. The mass spectrometry acquisition was in selected ion monitoring mode after selected ion extraction of the mass spectrometry spectra. […]

Data set [5] is described as follows: Pharmacokinetics and tissue distribution of 2A in normal mice. Particulars: LC-MS/MS.
Protocol: Wild-type C57BL/6J mice (male, 10–12 weeks old) were purchased from the Animal Resources Centre (Western Australia, Australia). All animals were housed within the University of Queensland Biological Resources animal facility in a pathogen-free environment with a 12 h dark/12 h light cycle and free access to food and water.
The pharmacokinetic (PK) profile and biodistribution of 2A peptide was assessed in mice (n=5; per route at a dose of 1 mg/kg) after intravenous (i.v; tail vein), subcutaneous (s.c; between the shoulders) and intranasal (i.n; 10μl in each nostril with total volume of 20μl) administration. Blood samples were collected at 10, 20, 30, 45, 60 mins, 2 h and 4 h after drug administration via the tail vein using a microsampling technique[27]. At the terminal time point (24 h post administration), animals were anaesthetised with zolazepam (50 mg/kg) and xylazine (12 mg/kg) via i.p. injection. Blood samples were then collected via cardiac puncture as well as tail bleed to validate the sampling protocol. Plasma was isolated from blood samples by centrifugation (2000 g for 10 min at 4 °C), and stored at −80 °C. Following blood collection at the termination time point, mice were immediately perfused transcardially with saline to remove blood from tissues. Harvested tissue samples were then weighed and homogenized in an equal weight volume of milliQ water. On the day of analysis, aliquots (5 μL) of thawed plasma samples and 100μL of tissue homogenates were mixed with internal standard (10 μL) and processed for peptide quantification using a semi-validated LC–MS/MS method as described previously[28].
Quantification of 2A peptide was performed using AcF-[OPdChaWR] peptide as an internal standard as described previously[28]. […] Concentrations of 2A peptide in samples was measured against known concentration of internal standard and peak area ratio of analyte to internal standard. […]
A further data set concerns SARS-CoV-2. Type of data set: cell-based. Particulars: 350 μM, pre-treated apically and basolaterally 1 h, then added every 12 h for 48 h; MOI 3; n=3 donors; versus PBS.

Peptide text beside a SMILES is read from it.

T1 sequence (Q9BYF1 18-805): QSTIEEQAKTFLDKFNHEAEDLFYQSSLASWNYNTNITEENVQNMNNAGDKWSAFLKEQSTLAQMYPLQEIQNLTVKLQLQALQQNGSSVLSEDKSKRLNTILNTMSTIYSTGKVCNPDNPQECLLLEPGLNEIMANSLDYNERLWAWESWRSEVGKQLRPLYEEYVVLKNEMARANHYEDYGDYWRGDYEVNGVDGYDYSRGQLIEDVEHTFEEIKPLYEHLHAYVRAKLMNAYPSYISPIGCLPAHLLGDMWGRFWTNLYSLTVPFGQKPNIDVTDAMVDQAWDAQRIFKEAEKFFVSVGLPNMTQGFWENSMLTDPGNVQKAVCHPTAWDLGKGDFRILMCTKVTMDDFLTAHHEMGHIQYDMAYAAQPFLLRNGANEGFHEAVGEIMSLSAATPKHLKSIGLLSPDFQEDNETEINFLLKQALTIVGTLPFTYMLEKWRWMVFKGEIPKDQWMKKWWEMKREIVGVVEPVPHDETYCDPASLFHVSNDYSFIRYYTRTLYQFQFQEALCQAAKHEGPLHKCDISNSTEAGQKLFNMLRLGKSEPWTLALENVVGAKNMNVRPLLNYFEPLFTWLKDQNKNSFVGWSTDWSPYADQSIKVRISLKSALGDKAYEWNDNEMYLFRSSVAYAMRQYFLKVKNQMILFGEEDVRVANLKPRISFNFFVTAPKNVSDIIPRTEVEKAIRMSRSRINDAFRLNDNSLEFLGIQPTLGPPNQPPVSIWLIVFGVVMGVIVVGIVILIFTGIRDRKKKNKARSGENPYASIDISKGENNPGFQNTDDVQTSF

On to “20 amino acid peptide: synthetic peptide corresponding to the first 20 amino acids of Bothrops asper myotoxin II”, for which the “effect on recombinant human ACE2 enzyme activity” value with rhACE2 [1] is “stimulates recombinant human ACE2 enzyme activity”.
On to `CC[C@H](C)[C@H](NC(=O)[C@H](CCSC)NC(=O)[C@H](CCCCN)NC(=O)CNC(=O)[C@H](CC(C)C)NC(=O)[C@H](CCC(=O)O)NC(=O)[C@H](Cc1ccccc1)NC(=O)[C@H](CC(C)C)NC(=O)[C@@H](N)CO)C(=O)N[C@@H](CC(C)C)C(N)=O` [2A] (H-SLFELGKMIL-NH2), for which the fraction remaining at 1 h, 9 μM in data set [2] was determined as 54 ± 4%. The “amount remaining in the cell culture medium in the absence of cells at T60 min” value in data set [2] (media only (no cells), Opti-MEM, possible adherence to plastic) came out at 63 ± 14%. For the same molecule, the “effects on organ weight” value in data set [3] (2A 1 mg/kg/day, 3 months) is given as “minimal effects”. In addition, in data set [3] (pre-clinical animal models of this paper), the “untoward effects in animal models” value is on record as “did not observe any untoward effects”. Further, the “increase of Ang 1-7 levels in the presence of ACE2 + 2A compared to ACE2 alone” value at rhACE2 [4] stood at 165 ± 12%. At rhACE2 [4] (over a 24-h period, ACE2 alone 58 ± 4%), the “reduction of Ang II levels in the presence of ACE2 + 2A” value was found to be 83 ± 5%. Also, in data set [5] (1 mg/kg i.v., s.c. or i.n., C57BL/6J mice, n=5 per route), the “detection in plasma 24 h post administration” value was “a small amount of peptide was still detected”. Also, the “clearance from the circulation” value in data set [5] (1 mg/kg i.v., s.c. or i.n., C57BL/6J mice, plasma, n=5 per route) is recorded as “rapidly cleared from the circulation over the first 4h”. Also, the “tissue distribution 24-h post administration (heart, lung, spleen, kidney, brain and spinal cord)” value in data set [5] (1 mg/kg, irrespective of the route (i.v., s.c., i.n.), tissue homogenates) is “detectable at low concentrations”.
On to `N=C(N)c1ccc(/N=N/Nc2ccc(C(=N)N)cc2)cc1` [DIZE, diminazene], for which the “viral titres produced by epithelial cells at 48 hours post-infection” value in the data set on SARS-CoV-2 is on record as “not significantly different”.
As to `CC[C@H](C)[C@H](NC(=O)[C@H](CCSC)NC(=O)[C@H](CCCCN)NC(=O)CNC(=O)[C@H](CC(C)C)NC(=O)[C@H](CCC(=O)O)NC(=O)[C@H](Cc1ccccc1)NC(=O)[C@H](CC(C)C)NC(=O)[C@@H](N)CO)C(=O)N[C@@H](CC(C)C)C(=O)O` [non-amidated 2A] (H-SLFELGKMIL-OH; N-terminus assumed), the fraction remaining at 1 h, 9 μM in data set [2] is 29 ± 3%.
